{
  "source": "paper PMC10897476",
  "about": "“Pyridylpiperazine efflux pump inhibitor boosts in vivo antibiotic efficacy against K. pneumoniae” (EMBO Molecular Medicine, 2023)",
  "assay_type_in_all_cases": "cell-based, Klebsiella pneumoniae",
  "key": {"[1]": {"system": "K. pneumoniae RamR^mut (K124*stop)", "test": "Checkerboard assay levofloxacin x EPI, RamR mutant", "settings": "for checkerboard growth readout: ATCC43816 ramRmut, levofloxacin 0 ng/mL", "experimental": "(§1) MIC experiments were carried out according to the CLSI guidelines (CLSI [2023]). Overnight cultures were diluted to an OD600 = 0.001 in CAMHB followed by addition of efflux pump inhibitors (EPIs) at a final concentration of 100 µM. […] Plates were incubated at 37 °C for up to 20 h. Bacterial viability was evaluated using the resazurin microtitre assay (REMA) and measured by fluorescence using a Tecan Spaert multimode plate reader (Ex: 530 nm Em: 590 nm). MICs were defined as the concentration that prevented 90% of resazurin turnover compared to the non-treated bacteria.\n(§2) Bacterial suspensions, incubation and plate readouts were carried out as described above."}, "[2]": {"system": "K. pneumoniae AcrB^V448E", "test": "Checkerboard assay levofloxacin x EPI, AcrB V448E mutant", "settings": "for checkerboard growth readout: ATCC43816 AcrBV448E, levofloxacin 0 ng/mL; for Median REMA values / percentage resazurin turnover: Lev 0.00 ng/mL", "experimental": "as §1, §2"}, "[3]": {"system": "K. pneumoniae AcrB^V448E", "test": "MIC of antibiotics with and without EPI (REMA), AcrB V448E mutant", "settings": "K. pneumoniae-AcrB^V448E, Table 2", "how_it_was_run": "(§3)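 K. pneumoniae ATCC 43816 carrying single chromosomal acrB or ramR mutations introduced by allelic exchange, diluted to OD600 = 0.001 in CAMHB with EPI at final 100 µM. Incubated 37 °C up to 20 h; viability by resazurin fluorescence (Ex 530/Em 590 nm).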"}, "[4]": {"system": "K. pneumoniae RamR^mut (K124*stop)", "test": "MIC of antibiotics with and without EPI (REMA), RamR mutant", "settings": "K. pneumoniae-RamR^mut, Table 2", "how_it_was_run": "as §3"}, "[5]": {"system": "K. pneumoniae AcrB^V448E RamR^mut", "test": "Checkerboard assay levofloxacin x EPI, double mutant", "design": "checkerboard growth readout: unit not given here", "settings": "for checkerboard growth readout: ATCC43816 AcrBV448E ramRmut, levofloxacin 0 ng/mL", "experimental": "as §1, §2"}, "[6]": {"system": "K. pneumoniae ATCC 43816 (WT)", "test": "Checkerboard assay levofloxacin x EPI, WT strain", "settings": "for checkerboard growth readout: ATCC43816 WT, levofloxacin 0 ng/mL; for percentage resazurin turnover: individual replicates, listed as BDM91288; for Median REMA values (percentage resazurin turnover): median n=3", "experimental": "as §1, §2"}},
  "note": "Where “and” joins values, the source holds several entries; their conditions need not be identical. Equal values may be shown once.",
  "data": [
    {"smiles": "Clc1cc2cc(N3CCNCC3)ccc2nc1N1CCNCC1", "note": "[compound 5]", "values": [
      {"measurement": "checkerboard growth readout", "setting": "[1]; EPI 2.3 µM", "value": 90},
      {"measurement": "checkerboard growth readout", "setting": "[1]; EPI 4.7 µM", "value": 91},
      {"measurement": "checkerboard growth readout", "setting": "[1]; EPI 9.4 µM", "value": 93},
      {"measurement": "checkerboard growth readout", "setting": "[1]; EPI 19 µM", "value": 96},
      {"measurement": "checkerboard growth readout", "setting": "[1]; EPI 38 µM", "value": 124},
      {"measurement": "checkerboard growth readout", "setting": "[1]; EPI 75 µM", "value": 151},
      {"measurement": "checkerboard growth readout", "setting": "[1]; EPI 150 µM", "value": 151},
      {"measurement": "checkerboard growth readout", "setting": "[1]; EPI 300 µM", "value": 103},
      {"measurement": "reversion of RamR-mediated levofloxacin resistance, in words", "setting": "[1]; K. pneumoniae RamR^mut", "value": "completely reverted"},
      {"measurement": "checkerboard growth readout", "setting": "[2]; EPI 2.3 µM", "value": 105},
      {"measurement": "checkerboard growth readout", "setting": "[2]; EPI 4.7 µM", "value": 99},
      {"measurement": "checkerboard growth readout", "setting": "[2]; EPI 9.4 µM", "value": 105},
      {"measurement": "checkerboard growth readout", "setting": "[2]; EPI 19 µM", "value": 100},
      {"measurement": "checkerboard growth readout", "setting": "[2]; EPI 38 µM", "value": 109},
      {"measurement": "checkerboard growth readout", "setting": "[2]; EPI 75 µM", "value": 118},
      {"measurement": "checkerboard growth readout", "setting": "[2]; EPI 150 µM", "value": 109},
      {"measurement": "checkerboard growth readout", "setting": "[2]; EPI 300 µM", "value": 93},
      {"measurement": "boosting of levofloxacin activity, in words", "setting": "[2]; K. pneumoniae AcrB^V448E", "value": "boosting was no longer observed"},
      {"measurement": "Median REMA values", "setting": "[2]; BDM91288 2.34 uM", "value": 105, "unit": "%"},
      {"measurement": "percentage resazurin turnover", "setting": "[2]; BDM91288 2.34 uM", "value": "105% and 87% and 109%"},
      {"measurement": "Median REMA values", "setting": "[2]; BDM91288 4.69 uM", "value": 99, "unit": "%"},
      {"measurement": "percentage resazurin turnover", "setting": "[2]; BDM91288 4.69 uM", "value": "99% and 89% and 111%"},
      {"measurement": "Median REMA values", "setting": "[2]; BDM91288 9.38 uM", "value": 105, "unit": "%"},
      {"measurement": "percentage resazurin turnover", "setting": "[2]; BDM91288 9.38 uM", "value": "105% and 90% and 114%"},
      {"measurement": "Median REMA values", "setting": "[2]; BDM91288 18.75 uM", "value": 100, "unit": "%"},
      {"measurement": "percentage resazurin turnover", "setting": "[2]; BDM91288 18.75 uM", "value": "100% and 93% and 138%"},
      {"measurement": "Median REMA values", "setting": "[2]; BDM91288 37.50 uM", "value": 109, "unit": "%"},
      {"measurement": "percentage resazurin turnover", "setting": "[2]; BDM91288 37.50 uM", "value": "99% and 109% and 157%"},
      {"measurement": "Median REMA values", "setting": "[2]; BDM91288 75.00 uM", "value": 118, "unit": "%"},
      {"measurement": "percentage resazurin turnover", "setting": "[2]; BDM91288 75.00 uM", "value": "124% and 117% and 118%"},
      {"measurement": "Median REMA values", "setting": "[2]; BDM91288 150.00 uM", "value": 109, "unit": "%"},
      {"measurement": "percentage resazurin turnover", "setting": "[2]; BDM91288 150.00 uM", "value": "109% and 152% and 108%"},
      {"measurement": "Median REMA values", "setting": "[2]; BDM91288 300 uM", "value": 93, "unit": "%"},
      {"measurement": "percentage resazurin turnover", "setting": "[2]; BDM91288 300 uM", "value": "114% and 93% and 89%"},
      {"measurement": "susceptibility of the strain to antibiotic boosting by the EPI, in words", "setting": "[3]", "value": "resistant"},
      {"measurement": "EPI mediated antibiotic boosting, in words", "setting": "[4]", "value": "maintained"},
      {"measurement": "checkerboard growth readout", "setting": "[5]; EPI 2.3 µM", "value": 87},
      {"measurement": "checkerboard growth readout", "setting": "[5]; EPI 4.7 µM", "value": 75},
      {"measurement": "checkerboard growth readout", "setting": "[5]; EPI 9.4 µM", "value": 86},
      {"measurement": "checkerboard growth readout", "setting": "[5]; EPI 19 µM", "value": 93},
      {"measurement": "checkerboard growth readout", "setting": "[5]; EPI 38 µM", "value": 98},
      {"measurement": "checkerboard growth readout", "setting": "[5]; EPI 75 µM", "value": 128},
      {"measurement": "checkerboard growth readout", "setting": "[5]; EPI 150 µM", "value": 153},
      {"measurement": "checkerboard growth readout", "setting": "[5]; EPI 300 µM", "value": 136},
      {"measurement": "modulation of levofloxacin MIC, in words", "setting": "[5]; K. pneumoniae AcrB^V448E RamR^mut", "value": "No modulation"},
      {"measurement": "checkerboard growth readout", "setting": "[6]; EPI 2.3 µM", "value": 105},
      {"measurement": "checkerboard growth readout", "setting": "[6]; EPI 4.7 µM", "value": 106},
      {"measurement": "checkerboard growth readout", "setting": "[6]; EPI 9.4 µM", "value": 97},
      {"measurement": "checkerboard growth readout", "setting": "[6]; EPI 19 µM", "value": 85},
      {"measurement": "checkerboard growth readout", "setting": "[6]; EPI 38 µM", "value": 109},
      {"measurement": "checkerboard growth readout", "setting": "[6]; EPI 75 µM", "value": 121},
      {"measurement": "checkerboard growth readout", "setting": "[6]; EPI 150 µM", "value": 118},
      {"measurement": "checkerboard growth readout", "setting": "[6]; EPI 300 µM", "value": 87},
      {"measurement": "maximal boosting of levofloxacin activity (decrease of MIC)", "setting": "[6]; K. pneumoniae WT (ATCC 43816), at 38 µM BDM91288", "value": 4, "unit": "fold"},
      {"measurement": "concentration needed for efficacy in vitro (boosting levofloxacin activity)", "setting": "[6]; K. pneumoniae WT, Fig. 2", "value": "9 to 38", "unit": "µM"},
      {"measurement": "percentage resazurin turnover", "setting": "[6]; Lev 0.00 ng/mL + EPI 2.34 uM", "value": "110% and 85% and 105%"},
      {"measurement": "Median REMA values (percentage resazurin turnover)", "setting": "[6]; Lev 0.00 ng/mL + EPI 2.34 uM", "value": 105, "unit": "%"},
      {"measurement": "percentage resazurin turnover", "setting": "[6]; Lev 0.00 ng/mL + EPI 4.69 uM", "value": "106% and 98% and 117%"},
      {"measurement": "Median REMA values (percentage resazurin turnover)", "setting": "[6]; Lev 0.00 ng/mL + EPI 4.69 uM", "value": 106, "unit": "%"},
      {"measurement": "percentage resazurin turnover", "setting": "[6]; Lev 0.00 ng/mL + EPI 9.38 uM", "value": "97% and 89% and 110%"},
      {"measurement": "Median REMA values (percentage resazurin turnover)", "setting": "[6]; Lev 0.00 ng/mL + EPI 9.38 uM", "value": 97, "unit": "%"},
      {"measurement": "percentage resazurin turnover", "setting": "[6]; Lev 0.00 ng/mL + EPI 18.75 uM", "value": "66% and 85% and 116%"},
      {"measurement": "Median REMA values (percentage resazurin turnover)", "setting": "[6]; Lev 0.00 ng/mL + EPI 18.75 uM", "value": 85, "unit": "%"},
      {"measurement": "percentage resazurin turnover", "setting": "[6]; Lev 0.00 ng/mL + EPI 37.50 uM", "value": "112% and 98% and 109%"},
      {"measurement": "Median REMA values (percentage resazurin turnover)", "setting": "[6]; Lev 0.00 ng/mL + EPI 37.50 uM", "value": 109, "unit": "%"},
      {"measurement": "percentage resazurin turnover", "setting": "[6]; Lev 0.00 ng/mL + EPI 75.00 uM", "value": "89% and 138% and 121%"},
      {"measurement": "Median REMA values (percentage resazurin turnover)", "setting": "[6]; Lev 0.00 ng/mL + EPI 75.00 uM", "value": 121, "unit": "%"},
      {"measurement": "percentage resazurin turnover", "setting": "[6]; Lev 0.00 ng/mL + EPI 150.00 uM", "value": "94% and 132% and 118%"},
      {"measurement": "Median REMA values (percentage resazurin turnover)", "setting": "[6]; Lev 0.00 ng/mL + EPI 150.00 uM", "value": 118, "unit": "%"},
      {"measurement": "percentage resazurin turnover", "setting": "[6]; Lev 0.00 ng/mL + EPI 300 uM", "value": "107% and 80% and 87%"},
      {"measurement": "Median REMA values (percentage resazurin turnover)", "setting": "[6]; Lev 0.00 ng/mL + EPI 300 uM", "value": 87, "unit": "%"},
      {"measurement": "concentration at which boosting of levofloxacin activity starts", "setting": "[6]; parental K. pneumoniae strain, checkerboard", "value": "around 9 µM"}
    ]}
  ]
}
